{"source": "paper PMC8778818", "about": "“Synthesis, Structural Characterization and Anticancer Activity of New 5-Trifluoromethyl-2-thioxo-thiazolo[4,5-d]pyrimidine Derivatives” (Pharmaceuticals, 2022)", "key": {"[1]": {"tested_on": "TK-10", "assay": "NCI-60 screen, Renal Cancer TK-10", "type": "cell-based, human", "conditions": "TK-10, five doses 10^−4–10^−8 M"}, "[2]": {"tested_on": "HOP-62", "assay": "NCI-60 screen, Non-Small Cell Lung Cancer HOP-62", "type": "cell-based"}, "[3]": {"tested_on": "OVCAR-4", "assay": "NCI-60 screen, Ovarian Cancer OVCAR-4", "type": "cell-based, human"}, "[4]": {"tested_on": "SNB-19", "assay": "NCI-60 screen, CNS Cancer SNB-19", "type": "cell-based, human"}, "[5]": {"tested_on": "UO-31", "assay": "NCI-60 screen, Renal Cancer UO-31", "type": "cell-based"}, "[6]": {"tested_on": "RPMI-8226", "assay": "NCI-60 screen, Leukemia RPMI-8226", "type": "cell-based, human"}, "[7]": {"tested_on": "SR", "assay": "NCI-60 screen, Leukemia SR", "type": "cell-based, human", "conditions": "five doses 10^−4–10^−8 M"}, "[8]": {"tested_on": "MDA-MB-231/ATCC", "assay": "NCI-60 screen, Breast Cancer MDA-MB-231/ATCC", "type": "cell-based"}, "[9]": {"tested_on": "U251", "assay": "NCI-60 screen, CNS Cancer U251", "type": "cell-based, human", "conditions": "U251, five doses 10^−4–10^−8 M"}, "[10]": {"tested_on": "IGROV1", "assay": "NCI-60 screen, Ovarian Cancer IGROV1", "type": "cell-based"}, "[11]": {"tested_on": "HCT-116", "assay": "NCI-60 screen, Colon Cancer HCT-116", "type": "cell-based, human"}, "[12]": {"tested_on": "NCI-H460", "assay": "NCI-60 screen, Non-Small Cell Lung Cancer NCI-H460", "type": "cell-based, human"}, "[13]": {"tested_on": "SN12C", "assay": "NCI-60 screen, Renal Cancer SN12C", "type": "cell-based"}, "[14]": {"tested_on": "SF-268", "assay": "NCI-60 screen, CNS Cancer SF-268", "type": "cell-based, human"}, "[15]": {"tested_on": "M14"}, "[16]": {"tested_on": "A498", "assay": "NCI-60 screen, Renal Cancer A498", "type": "cell-based, human"}, "[17]": {"conditions": "Homo sapiens, SNB-19, five doses 10^−4–10^−8 M"}}, "data": [{"smiles": "FC(F)(F)c1nc(Cl)c2sc(=S)n(-c3ccccc3)c2n1", "note": "[Compound 3b, 7-chloro-3-phenyl-5-(trifluoromethyl)[1, 3]thiazolo[4,5-d]pyrimidine-2(3H)-thione]", "values": [{"measurement": "log TGI", "setting": "[1]", "result": "−5.39", "unit": "log M"}, {"measurement": "Growth of Cells (%)", "setting": "[2]; HOP-62, 10^−5 M one dose", "result": 95.98, "unit": "%"}, {"measurement": "log TGI", "setting": "[2]; HOP-62, five doses 10^−4–10^−8 M", "result": "−5.46", "unit": "log M"}, {"measurement": "GI50", "setting": "[2]; Homo sapiens, HOP-62, read-out: log GI50 (converted)", "result": 1.86, "unit": "µM"}, {"measurement": "CC50", "setting": "[2]; Homo sapiens, HOP-62, five doses 10^−4–10^−8 M, read-out: log LC50 (the source's name) (converted)", "result": 6.31, "unit": "µM"}, {"measurement": "GI50", "setting": "[3]; Homo sapiens, OVCAR-4, five doses 10^−4–10^−8 M", "result": 1.78, "unit": "µM"}, {"measurement": "CC50", "setting": "[3]; Homo sapiens, OVCAR-4, five doses 10^−4–10^−8 M, read-out: log LC50 (the source's name) (converted)", "result": 7.24, "unit": "µM"}, {"measurement": "Growth of Cells (%)", "setting": "[3]; OVCAR-4, 10^−5 M one dose", "result": 23.73, "unit": "%"}, {"measurement": "log TGI", "setting": "[3]; OVCAR-4, five doses 10^−4–10^−8 M", "result": "−5.44", "unit": "log M"}, {"measurement": "GI50", "setting": "[4]; [17]", "result": 1.78, "unit": "µM"}, {"measurement": "LC50", "setting": "[4]; [17]", "result": 5.89, "unit": "µM"}, {"measurement": "Growth of Cells (%)", "setting": "[4]; SNB-19, 10^−5 M one dose", "result": 98.46, "unit": "%"}, {"measurement": "log TGI", "setting": "[4]; SNB-19, five doses 10^−4–10^−8 M", "result": "−5.49", "unit": "log M"}, {"measurement": "GI50", "setting": "[5]; Homo sapiens, UO-31, read-out: log GI50 (converted)", "result": 1.7, "unit": "µM"}, {"measurement": "CC50", "setting": "[5]; Homo sapiens, UO-31, five doses 10^−4–10^−8 M, read-out: log LC50 (the source's name) (converted)", "result": 6.03, "unit": "µM"}, {"measurement": "Growth of Cells (%)", "setting": "[5]; UO-31, 10^−5 M one dose", "result": "−82.97", "unit": "%"}, {"measurement": "log TGI", "setting": "[5]; UO-31, five doses 10^−4–10^−8 M", "result": "−5.49", "unit": "log M"}, {"measurement": "GI50", "setting": "[6]; Homo sapiens, RPMI-8226, five doses 10^−4–10^−8 M", "result": 2.51, "unit": "µM"}, {"measurement": "CC50", "setting": "[6]; Homo sapiens, RPMI-8226, five doses 10^−4–10^−8 M, read-out: log LC50 (the source's name) (converted)", "result": "> 100", "unit": "µM"}, {"measurement": "Growth of Cells (%)", "setting": "[6]; RPMI-8226, 10^−5 M one dose", "result": 44.45, "unit": "%"}, {"measurement": "log TGI", "setting": "[6]; RPMI-8226, five doses 10^−4–10^−8 M", "result": "−5.11", "unit": "log M"}, {"measurement": "GI50", "setting": "[7]; Homo sapiens", "result": 0.437, "unit": "µM"}, {"measurement": "CC50", "setting": "[7]; Homo sapiens, read-out: log LC50 (the source's name) (converted)", "result": "> 100", "unit": "µM"}, {"measurement": "log TGI", "setting": "[7]", "result": "−5.70", "unit": "log M"}, {"measurement": "GI50", "setting": "[8]; Homo sapiens, MDA-MB-231, read-out: log GI50 (converted)", "result": 2, "unit": "µM"}, {"measurement": "CC50", "setting": "[8]; Homo sapiens, MDA-MB-231/ATCC, five doses 10^−4–10^−8 M, read-out: log LC50 (the source's name) (converted)", "result": 7.59, "unit": "µM"}, {"measurement": "Growth of Cells (%)", "setting": "[8]; MDA-MB-231/ATCC, 10^−5 M one dose", "result": 13.85, "unit": "%"}, {"measurement": "log TGI", "setting": "[8]; MDA-MB-231/ATCC, five doses 10^−4–10^−8 M", "result": "−5.41", "unit": "log M"}, {"measurement": "GI50", "setting": "[9]; Homo sapiens, U-251", "result": 1.74, "unit": "µM"}, {"measurement": "LC50 (lethal concentration 50%)", "setting": "[9]; Homo sapiens, U-251", "result": 5.75, "unit": "µM"}, {"measurement": "log TGI", "setting": "[9]", "result": "−5.50", "unit": "log M"}, {"measurement": "GI50", "setting": "[10]; Homo sapiens, IGROV-1, IGROV1, five doses 10^−4–10^−8 M", "result": 1.95, "unit": "µM"}, {"measurement": "CC50", "setting": "[10]; Homo sapiens, IGROV-1, IGROV1, five doses 10^−4–10^−8 M, read-out: log LC50 (the source's name) (converted)", "result": 7.59, "unit": "µM"}, {"measurement": "Growth of Cells (%)", "setting": "[10]; IGROV1, 10^−5 M one dose", "result": 63.57, "unit": "%"}, {"measurement": "log TGI", "setting": "[10]; IGROV1, five doses 10^−4–10^−8 M", "result": "−5.41", "unit": "log M"}, {"measurement": "Growth of Cells (%)", "setting": "[11]; HCT-116, 10^−5 M one dose", "result": "−27.21", "unit": "%"}, {"measurement": "log TGI", "setting": "[11]; HCT-116, five doses 10^−4–10^−8 M", "result": "−5.47", "unit": "log M"}, {"measurement": "GI50", "setting": "[11]; Homo sapiens, HCT-116, five doses 10^−4–10^−8 M", "result": 1.74, "unit": "µM"}, {"measurement": "CC50", "setting": "[11]; Homo sapiens, HCT-116, five doses 10^−4–10^−8 M, read-out: log LC50 (the source's name) (converted)", "result": 6.61, "unit": "µM"}, {"measurement": "GI50", "setting": "[12]; Homo sapiens, NCI-H460, five doses 10^−4–10^−8 M", "result": 3.24, "unit": "µM"}, {"measurement": "CC50", "setting": "[12]; Homo sapiens, NCI-H460, five doses 10^−4–10^−8 M, read-out: log LC50 (the source's name) (converted)", "result": 50.1, "unit": "µM"}, {"measurement": "Growth of Cells (%)", "setting": "[12]; NCI-H460, 10^−5 M one dose", "result": 68.89, "unit": "%"}, {"measurement": "log TGI", "setting": "[12]; NCI-H460, five doses 10^−4–10^−8 M", "result": "−4.99", "unit": "log M"}, {"measurement": "Growth of Cells (%)", "setting": "[13]; 10^−5 M one dose", "result": 85.61, "unit": "%"}, {"measurement": "CC50", "setting": "[13]; Homo sapiens, five doses 10^−4–10^−8 M, read-out: log LC50 (the source's name) (converted)", "result": 40.7, "unit": "µM"}, {"measurement": "GI50", "setting": "[13]; Homo sapiens, read-out: log GI50 (converted)", "result": 3.55, "unit": "µM"}, {"measurement": "log TGI", "setting": "[13]; five doses 10^−4–10^−8 M", "result": "−4.88", "unit": "log M"}, {"measurement": "GI50", "setting": "[14]; Homo sapiens, SF-268, five doses 10^−4–10^−8 M", "result": 1.78, "unit": "µM"}, {"measurement": "CC50", "setting": "[14]; Homo sapiens, SF-268, five doses 10^−4–10^−8 M, read-out: log LC50 (the source's name) (converted)", "result": 6.61, "unit": "µM"}, {"measurement": "Growth of Cells (%)", "setting": "[14]; SF-268, 10^−5 M one dose", "result": 84.73, "unit": "%"}, {"measurement": "Growth of Cells (%)", "setting": "[15]; M14, 10^−5 M one dose", "result": 26.96, "unit": "%"}, {"measurement": "log TGI", "setting": "[15]; M14, five doses 10^−4–10^−8 M", "result": "−5.39", "unit": "log M"}, {"measurement": "Growth of Cells (%)", "setting": "[16]; A498, 10^−5 M one dose", "result": 91.46, "unit": "%"}, {"measurement": "log TGI", "setting": "[16]; A498, five doses 10^−4–10^−8 M", "result": "−4.57", "unit": "log M"}, {"measurement": "GI50", "setting": "[16]; Homo sapiens, A498, five doses 10^−4–10^−8 M", "result": 13.5, "unit": "µM"}, {"measurement": "CC50", "setting": "[16]; Homo sapiens, A498, five doses 10^−4–10^−8 M, read-out: log LC50 (the source's name) (converted)", "result": 52.5, "unit": "µM"}]}]}
